Results as given in PMC6862080, “Blood Compatibility—An Important but Often Forgotten Aspect of the Characterization of Antimicrobial Peptides for Clinical Application” (International Journal of Molecular Sciences, 2019).
Peptide text beside a SMILES is read from it. * marks the point of attachment. Lauroyl = CCCCCCCCCCCC(=O)*; Decanoyl = CCCCCCCCCC(=O)*; Octanoyl = CCCCCCCC(=O)*

Legend:
E. coli (ATCC 11303) = test: microbe, parasite or virus in culture; type: cell-based; conditions: ATCC 11303, pH 7.4
S. aureus (ATCC 12600) = test: microbe, parasite or virus in culture; type: cell-based; conditions: ATCC 12600, pH 7.4
erythrocyte membranes [1] = test: Hemolysis in whole blood (Kahn method); type: cell-based, human
Procedure: (§1) Hemolysis was tested with fresh citrate anticoagulated blood from healthy volunteers as well as with blood cells which were suspended in phosphate buffered saline (10 mM pH 7.4). Afterwards, 100 μL AMP solution was added to 500 μL blood to finally achieve AMP concentrations of 8, 32, and 128 μg/mL. As the negative and positive control, 100 μL PBS buffer and 100 μL 12% Triton-X buffer was added to 500 μL blood, respectively. After incubation on an orbital shaker for 60 min at 37 °C, the cells were removed by centrifugation and 100 μL of the supernatant were transferred to a 96 well microplate for hemolysis measurement. The hemolysis was calculated from the extinction at the wavelengths 562, 578, and 598 nm with a Synergy 2 microplate reader (BioTek, Winooski, VT, USA) according to the method published by Kahn.

erythrocyte membranes [2] = test: Hemolysis in RBC suspended in PBS (Kahn method); type: cell-based, human; conditions: pH 7.4
Procedure: as §1

LPS from P. aeruginosa = test: Endotoxin inactivation in human serum, chromogenic LAL test (P. aeruginosa LPS); type: biochemical; conditions: 500 ng/mL peptide, 5 ng/mL P. aeruginosa LPS, n = 3
Procedure: The LPS neutralization study in serum was conducted using a chromogenic Limulus Amebocyte Lysate (LAL) test (Charles River Laboratories, MA, USA). The LAL test is the most established method for quantifying LPS. This method uses amebocyte lysate from Limulus polyphemus, wherein the presence of LPS triggers a defense mechanism that induces coagulation. The LAL test is used successfully for detection of LPS in a wide variety of industrial, pharmaceutical, and research applications, such as water supplies, parenteral fluids, drugs for intravenous administration, and certain biologic fluids (e.g., cerebrospinal fluid). Therefore, serum, which was obtained from freshly drawn blood, was spiked with 500 ng/mL AMPs, PMB or LL-37 before adding 5 ng/mL LPS from E. coli or P. aeruginosa. As positive and negative controls, native serum with and without LPS was used, respectively. Endotoxin activity was measured using the LAL assay according to the manufacturer’s specifications.

plasmatic coagulation = test: Clotting batch test in citrate plasma; type: biochemical, human
Procedure: Since the acylated LF11-322 peptides cause plasmatic coagulation of citrate anticoagulated plasma, separate clotting experiments were performed with this peptide group. The aim was to check whether the coagulation activation is dependent on the AMP concentration and on the acyl chain length. […] Plasma without additives served as the negative control, whereas plasma spiked with CaCl2/MgCl2 (500/250 mM) solution to restore the physiological calcium and magnesium level in plasma was used as the positive control. Incubation was performed at 37 °C for 60 min. […] In order to ensure that the measured turbidity of the plasma is caused by fibrin formation, the fibrinogen and D-Dimer concentrations were additionally determined. During plasmatic clotting, the fibrinogen level decreases and the D-Dimer level in serum increases. Both were analyzed on a Sysmex CA560 with the corresponding reagents (Siemens Healthineers, Erlangen, Germany).

Peptide concentration that triggers clotting of citrate plasma (plasmatic coagulation) [µg/mL]	Structure (SMILES)	Minimal Inhibitory Concentration, E. coli, PBS (E. coli (ATCC 11303)) [µg/mL]	Minimal Inhibitory Concentration, S. aureus, PBS (S. aureus (ATCC 12600)) [µg/mL]	Free Hemoglobin, BLOOD, 8 μg/mL (erythrocyte membranes [1]) [mg/dL]	Free Hemoglobin, BLOOD, 32 μg/mL (erythrocyte membranes [1]) [mg/dL]	Free Hemoglobin, BLOOD, 128 μg/mL (erythrocyte membranes [1]) [mg/dL]	Free Hemoglobin, RBC in PBS, 8 μg/mL (erythrocyte membranes [2]) [mg/dL]	Free Hemoglobin, RBC in PBS, 32 μg/mL (erythrocyte membranes [2]) [mg/dL]	Reduction of the endotoxin activity in serum vs positive control (in words) (LPS from P. aeruginosa)
–	CCCCCCCC(=O)N[C@@H](Cc1ccccc1)C(=O)N[C@@H](Cc1c[nH]c2ccccc12)C(=O)N[C@@H](CCCNC(=N)N)C(=O)N[C@@H](CCCNC(=N)N)C(=O)N[C@@H](Cc1ccccc1)C(=O)N[C@@H](Cc1c[nH]c2ccccc12)C(=O)N[C@@H](CCCNC(=N)N)C(=O)N[C@@H](CCCNC(=N)N)C(N)=O [LF11-227-C8] (Octanoyl-FWRRFWRR-NH2)	> 128	> 128	3.6 ± 2.8	10.5 ± 13.5	2.3 ± 3.7	13.0 ± 0.7	15.9 ± 2.6	–
–	CCCCCCCCCC(=O)N[C@@H](Cc1ccccc1)C(=O)N[C@@H](Cc1c[nH]c2ccccc12)C(=O)N[C@@H](CCCNC(=N)N)C(=O)N[C@@H](CCCNC(=N)N)C(=O)N[C@@H](Cc1ccccc1)C(=O)N[C@@H](Cc1c[nH]c2ccccc12)C(=O)N[C@@H](CCCNC(=N)N)C(=O)N[C@@H](CCCNC(=N)N)C(N)=O [LF11-227-C10] (Decanoyl-FWRRFWRR-NH2)	> 128	> 128	2.3 ± 0.6	4.2 ± 1.4	2.7 ± 4.2	18.0 ± 6.7	45.1 ± 20.5	–
–	CCCCCCCCCCCC(=O)N[C@@H](Cc1ccccc1)C(=O)N[C@@H](Cc1c[nH]c2ccccc12)C(=O)N[C@@H](CCCNC(=N)N)C(=O)N[C@@H](CCCNC(=N)N)C(=O)N[C@@H](Cc1ccccc1)C(=O)N[C@@H](Cc1c[nH]c2ccccc12)C(=O)N[C@@H](CCCNC(=N)N)C(=O)N[C@@H](CCCNC(=N)N)C(N)=O [LF11-227-C12] (Lauroyl-FWRRFWRR-NH2)	> 128	> 128	2.6 ± 1.4	4.3 ± 2.5	2.5 ± 3.6	11.6 ± 3.2	26.3 ± 12.3	significant (p < 0.05) reduction
≥ 256	CCCCCCCC(=O)N1CCC[C@H]1C(=O)N[C@@H](Cc1ccccc1)C(=O)N[C@@H](Cc1c[nH]c2ccccc12)C(=O)N[C@@H](CCCNC(=N)N)C(=O)N[C@H](C(=O)N[C@@H](CCCNC(=N)N)C(=O)N[C@H](C(=O)N[C@@H](CCCNC(=N)N)C(=O)N[C@@H](CCCNC(=N)N)C(N)=O)[C@@H](C)CC)[C@@H](C)CC [LF11-322-C8] (Octanoyl-PFWRIRIRR-NH2)	8	8	2.2 ± 0.5	9.0 ± 3.8	2.7 ± 3.7	12.9 ± 1.5	26.1 ± 2.5	–
